Test results from patent US20240165078A1, “THERAPEUTIC TARGETING OF RECEPTOR TYROSINE KINASE INHIBITOR-INDUCED ANDROGEN RECEPTOR PHOSPHORYLATION IN CANCER” (Indiana University Research and Technology Corporation, priority 2018, published 2024).
Where a SMILES comes first, the peptide text is derived from it. The star is where a group is joined. Cbz = O=C(OCc1ccccc1)*

What was measured:
androgen receptor [1] = molecular target: T1, androgen receptor (Homo sapiens, UniProt P10275); experiment: AR expression by immunofluorescence in UMRC2siSPOP cells; type: cell-based; details: UMRC2siSPOP compared to UMRC2, in the presence of sunitinib
T1 construct: Baseline AR expression was high in 786-0R and UMRC2 cells; host or cells: 786-0, 786-0R, UMRC2
T1 sequence (P10275 1-920): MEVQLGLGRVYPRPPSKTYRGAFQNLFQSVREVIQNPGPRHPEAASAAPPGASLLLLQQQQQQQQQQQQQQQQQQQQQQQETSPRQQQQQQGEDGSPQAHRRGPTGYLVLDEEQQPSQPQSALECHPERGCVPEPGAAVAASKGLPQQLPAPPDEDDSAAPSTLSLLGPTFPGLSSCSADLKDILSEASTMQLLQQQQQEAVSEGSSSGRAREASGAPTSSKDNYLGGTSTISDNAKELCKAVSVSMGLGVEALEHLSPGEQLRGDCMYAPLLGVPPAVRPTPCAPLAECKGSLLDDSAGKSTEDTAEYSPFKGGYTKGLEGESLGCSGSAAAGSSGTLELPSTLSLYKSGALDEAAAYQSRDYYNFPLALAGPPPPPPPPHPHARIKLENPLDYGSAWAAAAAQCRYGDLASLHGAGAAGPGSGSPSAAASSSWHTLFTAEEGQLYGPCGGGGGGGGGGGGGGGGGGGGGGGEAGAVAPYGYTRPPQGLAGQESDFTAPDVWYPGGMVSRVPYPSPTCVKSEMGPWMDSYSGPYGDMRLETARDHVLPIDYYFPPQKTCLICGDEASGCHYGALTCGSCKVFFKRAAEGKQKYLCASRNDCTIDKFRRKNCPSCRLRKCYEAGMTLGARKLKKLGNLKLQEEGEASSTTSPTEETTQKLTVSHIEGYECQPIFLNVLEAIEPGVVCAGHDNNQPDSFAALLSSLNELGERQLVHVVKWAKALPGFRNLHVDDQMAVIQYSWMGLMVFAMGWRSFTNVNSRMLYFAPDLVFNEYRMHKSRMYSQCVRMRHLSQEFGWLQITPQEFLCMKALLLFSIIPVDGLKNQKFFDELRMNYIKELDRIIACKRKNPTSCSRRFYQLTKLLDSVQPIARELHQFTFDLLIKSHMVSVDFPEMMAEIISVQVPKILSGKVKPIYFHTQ

androgen receptor [2] = molecular target: T1, androgen receptor; experiment: AR expression by immunofluorescence in RCC cells (sunitinib, enzalutamide, combination, ±MG132); type: cell-based; details: 786-0R and UMRC2 cells
LNCaP cells = experiment: LNCaP cell phenotype and drug activity; type: cell-based; details: sunitinib-exposed LNCaP cells
CDK1 = experiment: Western blot for CDK1 in RP-R-02LM tumors treated in vivo; details: RP-R-02LM intrinsically sunitinib-resistant tumors
Source text: Cells were maintained and cultured in the appropriate media, supplemented with 10% FBS and 1% penicillin and streptomycin. All cells are routinely tested and checked for the absence of mycoplasma. […] Crystal violet assay (Sigma) was used to evaluate cells growth after different time point-treatment, and absorbance was read using a spectrometer (xMarks Spectrometer, Bio-Rad). […] Six-week-old homozygous ICR, Severe Combined Immune-deficient (SCID) female mice were housed in a sterile, pathogen-free facility and maintained in a temperature controlled room, under a 12-hour light/dark schedule with water and food ad libitum. […] All mice were operated under sedation with oxygen, isoflurane and buprenorphine. When tumors were established, and reached 50 mm^2, mice were randomly grouped and placed in either control group or treatment groups (n=5-10). […] Tumor burden was assessed once a week by caliper measurement of two diameters of the tumor (L×W=mm^2) and reported as tumor volume ((L×W2)/2=mm^3). Body weights were assessed using a weighing scale and recorded in grams. Endpoint tumor weights were assessed using a weigh scale and recorded in grams. […]
Whole cell protein extracts from tissue and cell were denatured, separated on SDS-PAGE gels and transferred to nitrocellulose membranes. […] Quantitative measurements of Western blot analysis were performed using ImageJ and Graph-Pad software (Prism 7).

786-0 tumors = experiment: 786-0 RCC tumor model in mice; type: in vivo
KLK2 [3] = experiment: Human KLK2 ELISA, tissue culture supernatant; type: cell-based; details: in vitro, RCC cell lines
786-OAR cells = experiment: Sunitinib dose-response proliferation assay, AR-overexpressing cells; type: cell-based; details: Homo sapiens; 786-OAR (786-0 overexpressing ARwt)
Experimental: (§1) AR expression was also assessed in other RCC cell lines (FIG. 1E).

786-0 cells = experiment: Sunitinib dose-response proliferation assay; type: cell-based; details: Homo sapiens
Experimental: as §1

KLK2 [4] = experiment: KLK2 serum level in RCC PDX models RP-R-02 and RP-R-02LM; type: in vivo, human; details: sunitinib acquired (RP-R-02) and intrinsic (RP-R-02LM) resistance models
[5] = system: AR targeted genes (KLK2, KLK4, ZBTB16, MYC); experiment: q-PCR of AR targeted genes after sunitinib; type: cell-based, human; details: 786-0R and UMRC2 cells, sunitinib treatment
Experimental: RNA was extracted in accordance with manufacturer's protocol (miRNeasy; Qiagen), and RNA sequencing was performed as previously described (25). In brief, RNA illumine sequencing reads were de-multiplex, aligned against human genome (hg19), and results aligned to BAM formatted sequence alignment map via cufflinks program. Differential expressed transcripts were identified between 786-0 and 786-0R samples, and ranked based on the square root of the sum of squares for the log 2 fold change. For qRT-PCR analysis, gene expression assessment on AR target genes was performed using the Prime PCR array (Bio-Rad) according to manufacturer's protocol. AR primer used is forward primer; 5-[…]-3 (SEQ ID NO:1) and reverse primer; 5-[…]-3 (SEQ ID NO:2). In brief, the denaturation step was carried out at 95° C. for 10 seconds; the annealing step was carried out at 58° C. for 30 seconds, and extension step at 72° C. for 1 minute using the applied Biosystems 7900HT fast real-time PCR system (Applied Biosystems). Sequence Detection Systems Software v2.3 was used to identify cycle threshold (Ct) values and generate gene expression curves. All data were normalized to either GAPDH expression.
Gene expression of AR targeted genes was then examined in the presence or absence of sunitinib treatment.

[6] = system: AR+ RCC cell lines (786-0R, UMRC2, Caki2); experiment: Crystal violet cell viability assay, AR+ RCC cell lines; type: cell-based, human
Experimental: as §1

KLK2 [7] = experiment: KLK2 ELISA in plasma of kidney cancer patients; type: in vivo, human; details: kidney cancer patients treated with sunitinib
786-0R cells = experiment: Ki67 immunofluorescence staining; type: cell-based, human; details: in the presence of sunitinib and enzalutamide
Experimental: as §1

KLK2 [8] = experiment: Human KLK2 ELISA, serum of 786-0 tumor bearing mice; type: in vivo; details: 786-0 model, end-point

AR expression (androgen receptor [1]) | AR expression (androgen receptor [2]) | IC50 (786-OAR cells) [µM] | IC50 (786-0 cells) [µM] | IC50 for sunitinib by AR status ([6]; AR+ lines (786-0R, UMRC2, Caki2) compared to AR- lines (786-0, ACHN)) | Structure (SMILES) | activity of enzalutamide (LNCaP cells) | CDK1 protein expression (CDK1) | angiogenesis (CD31 staining) (786-0 tumors; 786-0 tumors) | proliferation in vivo (Ki67 staining) (786-0 tumors; 786-0 tumors) | time when tumors became resistant to sunitinib (≥50% increase volume from nadir) (786-0 tumors; second experiment, sunitinib 40 mg/kg) [days] | KLK2 in tissue culture supernatant (KLK2 [3]) | KLK2 in serum (KLK2 [4]) | increased gene expression of KLK2, KLK4, ZBTB16 and MYC [5] | KLK2 in plasma (KLK2 [7]) | cell proliferation (Ki67 staining) (786-0R cells) | circulating KLK2 levels (KLK2 [8]) | cell viability, single agent ([6]; AR+ 786-0R cells)
significant increased AR expression | increased | 12.3 | 5.2 | higher IC50 | CCN(CC)CCNC(=O)c1c(C)[nH]c(/C=C2\C(=O)Nc3ccc(F)cc32)c1C [sunitinib, N-(2-Diethylaminoethyl)-5-[(Z)-(5-fluoro-2-oxo-1H-indol-3-ylidene)methyl]-2,4-dimethyl-1H-pyrrole-3-carboxamide] | increased the activity of enzalutamide | increased CDK1 protein expression | inhibition of angiogenesis | continued to proliferate | 45 | increased KLK2 | increased | 2-100 fold | increase of KLK2 | – | – | –
– | – | – | – | – | CC(C)C[C@@H](C=O)NC(=O)[C@H](CC(C)C)NC(=O)[C@H](CC(C)C)NC(=O)OCc1ccccc1 [MG132] (Cbz-Leu-Leu-Leu-aldehyde) | – | – | – | – | – | – | – | – | – | restoration of cell proliferation | – | –
– | – | – | – | – | CNC(=O)c1ccc(N2C(=S)N(c3ccc(C#N)c(C(F)(F)F)c3)C(=O)C2(C)C)cc1F [enzalutamide, 4-(3-(4-cyano-3-(trifluoromethyl)phenyl)-5,5-dimethyl-4-oxo-2-thioxoimidazolidin-1-yl)-2-fluoro-N-methylbenzamide] | – | – | – | – | – | modulated | – | – | – | – | decreased | did not have a significant effect
